Reference: US7256185B1, “Control of selective estrogen receptor modulators” (Eastern Virginia Medical School, priority 1997, dated 2007)
Where two headings read alike, the source gives them in different places.

Experimental: 1. Clomiphene is used alone at 100 mg/day for the treatment of endometriosis. […] Levonorgestrel at 75 mcg/day is then also administered.
2. Raloxifene at 500 mg/day and medroxprogesterone acetate at 12 mg/day were administrated to treat leiomyoma.
5. Clomiphene is used alone at 100 mg/day for the treatment of endometriosis. […] Danazol at 100 to 800 mg/day is then also administered.

[1] = clomiphene ZU isomer 50 mg/day and norgestimate 100 mcg/day coadministered
[2] = raloxifene 500 mg/day and medroxprogesterone acetate 12 mg/day administered together, leiomyoma

Compound	serum estrogen [1]	serum estrogen [2]	other results
CCN(CC)CCOc1ccc(/C(=C(\Cl)c2ccccc2)c2ccccc2)cc1 (single isomer, unassigned) [Clomiphene ZU isomer]	remained at physiological levels	–	–
CC(=O)O[C@]1(C(C)=O)CC[C@H]2[C@@H]3C[C@H](C)C4=CC(=O)CC[C@]4(C)[C@H]3CC[C@@]21C [medroxprogesterone acetate]	–	remained at physiological levels	–
O=C(c1ccc(OCCN2CCCCC2)cc1)c1c(-c2ccc(O)cc2)sc2cc(O)ccc12 [Raloxifene]	–	remained at physiological levels	–
C#C[C@]1(OC(C)=O)CC[C@H]2[C@@H]3CCC4=CC(=NO)CC[C@@H]4[C@H]3CC[C@@]21CC (mixture of isomers) [norgestimate]	remained at physiological levels	–	–
C#C[C@]1(O)CC[C@H]2[C@@H]3CCC4=Cc5oncc5C[C@]4(C)[C@H]3CC[C@@]21C [Danazol, danazol]	–	–	serum estrogen (danazol 100 to 800 mg/day added to clomiphene 100 mg/day after serum estrogen reached 500 pg/ml, endometriosis): retreated to physiological value
